Values after ≈ are worked out from the molar mass of the structure shown.
Key:
HCT-116 = experiment: cells; conditions: Homo sapiens, HCT-116, 48 h
Description: Antiproliferative activity against human HCT-116 cells incubated for 48 hrs by CCK-8 assay

[1] = target: ATP-dependent Clp protease proteolytic subunit, mitochondrial (Homo sapiens, UniProt Q16740); experiment: Agonist activity at human CLpP (57 to 277 amino acids) expressed in Escherichia coli using fluorogenic peptide AC-WLA-AMC as substrate incubated for 10 mins by fluorescence based assay
[2] = 1-octanol/water partition coefficient, log P of the compound agitated for 4 hrs measured by shake flask assay based HPLC analysis; assay type: physicochemical
[3] = Aqueous solubility of the compound agitated for 24 hrs by HPLC analysis; assay type: physicochemical; conditions: buffer
[4] = Stability in rat liver microsomes assessed as half life at 1.5 uM measured upto 90 mins in presence of NADPH by LC/MS analysis; assay type: ADME, Microsome; conditions: 1.5 h
[5] = Stability in human liver microsomes assessed as intrinsic clearance at 1.5 uM measured upto 90 mins in presence of NADPH by LC/MS analysis; assay type: ADME, Microsome; conditions: read-out: CLH
HCT-15 = experiment: cells; conditions: Homo sapiens, HCT-15, 48 h
Description: Antiproliferative activity against human HCT-15 cells incubated for 48 hrs by CCK-8 assay

DLD-1 = experiment: cells; conditions: Homo sapiens, DLD-1, 48 h
Description: Antiproliferative activity against human DLD-1 cells incubated for 48 hrs by CCK-8 assay

SW-620 = experiment: cells; conditions: Homo sapiens, SW-620, 48 h
Description: Antiproliferative activity against human SW-620 cells incubated for 48 hrs by CCK-8 assay

HT-29 = experiment: cells; conditions: Homo sapiens, HT-29, 48 h
Description: Antiproliferative activity against human HT-29 cells incubated for 48 hrs by CCK-8 assay

SW480 = experiment: cells; conditions: Homo sapiens, SW480, 48 h
Description: Antiproliferative activity against human SW480 cells incubated for 48 hrs by CCK-8 assay

ATP-dependent Clp protease proteolytic subunit, mitochondrial, sequence (Q16740 whole entry, the tested form may be a part): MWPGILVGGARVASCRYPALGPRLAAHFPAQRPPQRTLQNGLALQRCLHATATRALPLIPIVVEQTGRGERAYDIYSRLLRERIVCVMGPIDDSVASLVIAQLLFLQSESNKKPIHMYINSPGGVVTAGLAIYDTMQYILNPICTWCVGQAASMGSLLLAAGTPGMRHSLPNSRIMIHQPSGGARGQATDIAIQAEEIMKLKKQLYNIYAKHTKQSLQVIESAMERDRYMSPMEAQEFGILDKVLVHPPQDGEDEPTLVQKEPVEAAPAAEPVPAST

Structure (SMILES) | IC50 (HCT-116) [nM] | EC50 [1] [nM] | further results
O=c1nc2n(c3c1CN(Cc1ccccc1)CC3)CCN2CC1CCCCC1 | 2460 | 130 | –
CN1CCn2c1nc(=O)c1c2CCN(Cc2ccccc2)C1 | > 10000 | > 10000 | –
Cc1ccccc1CN1CCn2c1nc(=O)c1c2CCN(Cc2ccccc2C#N)C1 | > 10000 | 660 | –
COc1cccc(CN2CCn3c2nc(=O)c2c3CCN(Cc3ccccc3)C2)c1 | 1200 | 100 | –
O=c1nc2n(c3c1CN(Cc1ccccc1)CC3)CCN2Cc1ccccc1F | 290 | 440 | –
Cc1ccccc1CN1CCn2c1nc(=O)c1c2CCN(CC(C)C)C1 | > 10000 | > 10000 | –
O=c1nc2n(c3c1CN(Cc1ccccc1)CC3)CCN2Cc1ccc(C(F)(F)F)cc1 | 320 | 290 | –
COc1ccc(CN2CCn3c2nc(=O)c2c3CCN(Cc3ccccc3)C2)cc1 | 1160 | 500 | –
Cc1ccccc1CN1C(=O)C2=C(CCN(Cc3ccccc3)C2)N2CCN=C12 [DORDAVIPRONE] | – | – | logP at 4 h [2]: 2.93; solubility at 24 h [3]: 200 µM (≈ 77.4 µg/mL); t1/2 [4]: 10.5 min; CLint scaled at 1.5 µM [5]: 187 mL/min/kg
O=c1nc2n(c3c1CN(Cc1ccccc1)CC3)CCN2Cc1ccccc1 | 520 | 120 | –
Cc1ccccc1CN1CCn2c1nc(=O)c1c2C(F)(F)CN(Cc2ccccc2)C1 | 5100 | 500 | –
Cc1ccccc1CN1CCn2c1nc(=O)c1c2CCN(Cc2ccc(F)c(F)c2)C1 | 5000 | 320 | –
Cc1ccccc1CN1CCn2c1nc(=O)c1c2CCN(C(=O)c2ccccc2)C1 | > 10000 | > 10000 | –
Cc1ccccc1CN1CCn2c1nc(=O)c1c2CCN(Cc2cccc(C#N)c2)C1 | 500 | 580 | –
Cc1ccccc1CN1CCn2c1nc(=O)c1c2CCN(C(=O)Cc2ccccc2)C1 | > 10000 | > 10000 | –
Cc1ccccc1CN1CCn2c1nc(=O)c1c2CCN(Cc2ccc(F)cc2)C1 | 10000 | 640 | –
Cc1ccc(CN2CCn3c2nc(=O)c2c3CCN(Cc3ccccc3)C2)cc1 | 210 | 320 | –
Cc1ccccc1CN1CCCn2c1nc(=O)c1c2CCN(Cc2ccccc2)C1 | > 10000 | 3520 | –
Cc1ccccc1CN1CCn2c1nc(=O)c1c2CCN(Cc2ccc(F)cc2F)C1 | > 10000 | 980 | –
O=c1nc2n(c3c1CN(Cc1ccccc1)CC3)CCN2CC1CC1 | > 10000 | 1220 | –
O=c1nc2n(c3c1CN(Cc1ccccc1)CC3)CCN2Cc1ccco1 | > 10000 | 1760 | –
O=c1nc2n(c3c1CN(Cc1ccccc1)CC3)CCN2Cc1ccc2ccccc2c1 | 310 | 360 | –
O=c1nc2n(c3c1CN(Cc1ccccc1)CC3)CCN2Cc1ccc(Cl)cc1 | 80 | 300 | IC50 (HCT-15): 250 nM; IC50 (DLD-1): 100 nM; IC50 (SW-620): 170 nM; IC50 (HT-29): 70 nM; IC50 (SW480): 100 nM
O=c1nc2n(c3c1CN(Cc1ccccc1)CC3)CCN2Cc1ccc(F)c(F)c1 | 100 | 300 | IC50 (HCT-15): 200 nM; IC50 (DLD-1): 150 nM; IC50 (SW-620): 150 nM; IC50 (HT-29): 50 nM; IC50 (SW480): 120 nM
O=c1nc2n(c3c1CN(Cc1ccccc1)CC3)CCN2CCc1ccccc1 | > 10000 | 420 | –
Cc1ccccc1CN1CCn2c1nc(=O)c1c2CCN(CCc2ccccc2)C1 | 6010 | 1090 | –

— ChEMBL document CHEMBL5154926, “Discovery of a Novel Series of Imipridone Compounds as Homo sapiens Caseinolytic Protease P Agonists with Potent Antitumor Activities In Vitro and In Vivo” (J Med Chem, 2022)
